These results are taken from ChEMBL document CHEMBL1770082, “Probing the isoprenylcysteine carboxyl methyltransferase (Icmt) binding pocket: sulfonamide modified farnesyl cysteine (SMFC) analogs as Icmt inhibitors” (Bioorg Med Chem Lett, 2011).

For experiment [1], the target named is T1, Protein-S-isoprenylcysteine O-methyltransferase (Homo sapiens, UniProt O60725). Conditions: at 10 µM.
Description: Inhibition of human ICMT at 10 uM incubated with N-Acetyl-S-farnesyl-L-cysteine substrate for 5 mins followed by addition of [14C]-SAM measured after 30 mins by liquid scintillation counting
For experiment [2], the target named is T1, Protein-S-isoprenylcysteine O-methyltransferase. Briefly: Inhibition of human ICMT incubated with N-Acetyl-S-farnesyl-L-cysteine substrate for 5 mins followed by addition of [14C]-SAM measured after 30 mins by liquid scintillation counting.
Experiment [3] shares this target. Briefly: Inhibition of human ICMT at 10uM incubated with N-Acetyl-S-farnesyl-L-cysteine substrate for 5 mins followed by addition of [14C]-SAM measured after 30 mins by liquid scintillation counting.

T1 sequence (O60725 whole entry): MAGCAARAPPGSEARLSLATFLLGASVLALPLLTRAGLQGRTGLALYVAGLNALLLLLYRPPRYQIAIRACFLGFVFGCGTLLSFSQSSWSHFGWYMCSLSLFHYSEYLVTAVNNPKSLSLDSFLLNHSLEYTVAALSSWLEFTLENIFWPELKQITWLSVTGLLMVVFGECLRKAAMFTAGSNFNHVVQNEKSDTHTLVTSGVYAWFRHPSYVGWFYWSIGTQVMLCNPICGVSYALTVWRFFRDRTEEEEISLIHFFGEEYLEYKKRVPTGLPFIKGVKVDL

The inhibition is the relative decrease from the control value, in per cent. Low readings indicate little suppression, high ones strong suppression. Regarding `CC(C)=CCC/C(C)=C/CSC[C@H](NS(=O)(=O)c1ccccc1)C(=O)O`, the inhibition in experiment [1] turned out to be 22%.
On to `CC(C)=CCC/C(C)=C/CSC[C@H](NS(=O)(=O)c1cccc([N+](=O)[O-])c1)C(=O)O`, for which, in experiment [1], the inhibition is 18%.
For `CC(C)=CCC/C(C)=C/CC/C(C)=C/CSC[C@H](NS(=O)(=O)c1ccc(C)cc1)C(=O)O`, the inhibition in experiment [1] was under 45%.
In the case of `CC(C)=CCC/C(C)=C/CC/C(C)=C/CSC[C@H](NS(=O)(=O)c1ccccc1Br)C(=O)O`, the inhibition in experiment [1] was under 45%.
Regarding `COc1ccc(S(=O)(=O)N[C@@H](CSC/C=C(\C)CC/C=C(\C)CCC=C(C)C)C(=O)O)c(OC)c1`, the inhibition in experiment [1] came out at 45%.
`CCCCCCCCCCCSC[C@H](NS(=O)(=O)c1cccc([N+](=O)[O-])c1)C(=O)O` yielded an inhibition in experiment [1] of 32%.
The term IC50 denotes the concentration that inhibits the measured activity by half. In experiment [2], `CC(C)=CCC/C(C)=C/CC/C(C)=C/CSC[C@H](NS(=O)(=O)c1ccccc1)C(=O)O` came in with an IC50 of 17 µM. The inhibition in experiment [1] is 45%.
For the molecule `CC(C)=CCC/C(C)=C/CC/C(C)=C/CSC[C@H](NS(=O)(=O)c1cccc2cccnc12)C(=O)O`, the inhibition in experiment [1] is 45%.
In turn, `CC(C)=CCC/C(C)=C/CC/C(C)=C/CSC[C@H](NS(=O)(=O)c1ccc2ccccc2c1)C(=O)O` yielded an inhibition in experiment [1] of 45%.
In the case of `CC(C)=CCC/C(C)=C/CC/C(C)=C/CSC[C@H](NS(=O)(=O)c1cccs1)C(=O)O`, inhibition in experiment [2] was half-maximal at 8.8 µM (IC50). The inhibition in experiment [1] is over 55%.
Turning to `CC(C)=CCC/C(C)=C/CC/C(C)=C/CSC[C@H](NS(=O)(=O)c1c(C)c(C)c(C)c(C)c1C)C(=O)O`, the inhibition in experiment [1] was under 45%.
On the same count and under the same terms, to `CC(C)=CCC/C(C)=C/CC/C(C)=C/CSC[C@H](NS(=O)(=O)c1ccc(C(C)C)cc1)C(=O)O` belongs under 45%.
`CC(C)=CCC/C(C)=C/CC/C(C)=C/CSC[C@H](NS(=O)(=O)c1cccc([N+](=O)[O-])c1)C(=O)O` had an IC50 in experiment [2] of 13.4 µM. The molecule also came in with an inhibition in experiment [1] of over 55%.
For the molecule `CC(C)=CCC/C(C)=C/CC/C(C)=C/CSC[C@H](NS(=O)(=O)c1c(F)c(F)c(F)c(F)c1F)C(=O)O`, in experiment [1], the inhibition is under 45%.
Molecule `C=Cc1ccc(S(=O)(=O)N[C@@H](CSC/C=C(\C)CC/C=C(\C)CCC=C(C)C)C(=O)O)cc1` showed an inhibition in experiment [1] of under 45%.
`COc1ccc(S(=O)(=O)N[C@@H](CSC/C=C(\C)CC/C=C(\C)CCC=C(C)C)C(=O)O)c([N+](=O)[O-])c1` registered an inhibition in experiment [1] of under 45%.
The same measure, in the same setting: the same measure for `COc1ccc(S(=O)(=O)N[C@@H](CSC/C=C(\C)CC/C=C(\C)CCC=C(C)C)C(=O)O)cc1`: under 45%; for `CC(C)=CCC/C(C)=C/CC/C(C)=C/CSC[C@H](NS(=O)(=O)c1ccc(-c2ccccc2)cc1)C(=O)O`: under 45%; for `COc1ccc(S(=O)(=O)N[C@@H](CSC/C=C(\C)CC/C=C(\C)CCC=C(C)C)C(=O)O)cc1OC`: over 55%.
For the molecule `CC(C)=CCC/C(C)=C/CC/C(C)=C/CSC[C@H](NS(=O)(=O)C[C@@]12CC[C@H](CC1=O)C2(C)C)C(=O)O`, in experiment [1], the inhibition was determined as 45%.
`CC(C)=CCC/C(C)=C/CC/C(C)=C/CSC[C@H](NS(=O)(=O)Cc1ccccc1)C(=O)O` yielded an inhibition in experiment [1] of under 45%.
For `CC(=O)c1ccc(S(=O)(=O)N[C@@H](CSC/C=C(\C)CC/C=C(\C)CCC=C(C)C)C(=O)O)cc1`, in experiment [1], the inhibition was 45%.
Regarding `CC(=O)Nc1ccc(S(=O)(=O)N[C@@H](CSC/C=C(\C)CC/C=C(\C)CCC=C(C)C)C(=O)O)cc1`, in experiment [1], the inhibition was under 45%.
With `CCCCCCSC[C@H](NS(=O)(=O)c1cccc([N+](=O)[O-])c1)C(=O)O`, the inhibition in experiment [1] is 17%.
`CC(C)=CCC/C(C)=C/CC/C(C)=C/CSC[C@H](NS(=O)(=O)c1ccccc1Oc1ccccc1)C(=O)O` returned a half-inhibitory concentration (IC50) in experiment [2] of 18.4 µM. Further, the inhibition in experiment [1] turned out to be 55%.
On to `CC(C)=CCC/C(C)=C/CC/C(C)=C/CSC[C@H](NS(=O)(=O)c1ccc(F)cc1F)C(=O)O`, for which the inhibition in experiment [1] was 45%.
As for `CC(C)=CCC/C(C)=C/CC/C(C)=C/CSC[C@H](NS(=O)(=O)c1ccc(Cl)cc1F)C(=O)O`, in experiment [1], the inhibition is under 45%.
As to `CC(C)=CCC/C(C)=C/CC/C(C)=C/CSC[C@H](NS(=O)(=O)c1ccc(C(C)(C)C)cc1)C(=O)O`, the inhibition in experiment [1] turned out to be 45%.
The molecule `CC(C)=CCC/C(C)=C/CSC[C@H](NS(=O)(=O)c1ccc(F)cc1)C(=O)O` displayed an inhibition in experiment [1] of 23%.
Turning to `CCCCCCCCS(=O)(=O)N[C@@H](CSC/C=C(\C)CC/C=C(\C)CCC=C(C)C)C(=O)O`, the inhibition in experiment [1] was under 45%.
Still for that read-out and setting: to `CC(C)=CCC/C(C)=C/CC/C(C)=C/CSC[C@H](NS(=O)(=O)c1ccc([N+](=O)[O-])cc1)C(=O)O` belongs over 55%.
For `CC(C)=CCC/C(C)=C/CC/C(C)=C/CSC[C@H](NS(=O)(=O)c1cccc2c(N(C)C)cccc12)C(=O)O`, the IC50 in experiment [2] came to 11.6 µM. Moreover, in experiment [1], the inhibition came to 45%.
On to `CC(C)=CCC/C(C)=C/CC/C(C)=C/CSC[C@H](NS(=O)(=O)c1c(C(C)C)cc(C(C)C)cc1C(C)C)C(=O)O`, for which the inhibition in experiment [1] is under 45%.
The molecule `COC(=O)[C@H](CSC/C=C(\C)CC/C=C(\C)CCC=C(C)C)NS(=O)(=O)c1cccs1` returned an inhibition in experiment [3] of 10%.
Consider `CCCc1ccc(S(=O)(=O)N[C@@H](CSC/C=C(\C)CC/C=C(\C)CCC=C(C)C)C(=O)O)cc1`, for which the inhibition in experiment [1] was under 45%.
On to `CC(C)=CCC/C(C)=C/CC/C(C)=C/CSC[C@H](NS(=O)(=O)c1ccc(Cl)cc1)C(=O)O`, for which, in experiment [1], the inhibition worked out at 45%.
Take `CC(C)=CCC/C(C)=C/CC/C(C)=C/CSC[C@H](NS(=O)(=O)c1ccccc1C(F)(F)F)C(=O)O`: in experiment [1], the inhibition is under 45%.
The same measure, in the same setting: the same measure for `CC(C)=CCC/C(C)=C/CC/C(C)=C/CSC[C@H](NS(=O)(=O)c1ccccc1[N+](=O)[O-])C(=O)O`: 45%; for `CC(C)=CCC/C(C)=C/CC/C(C)=C/CSC[C@H](NS(=O)(=O)c1ccc(Br)s1)C(=O)O`: under 45%.
The molecule `CC(C)=CCC/C(C)=C/CC/C(C)=C/CSC[C@H](NS(=O)(=O)c1ccc(F)cc1)C(=O)O` showed an IC50 in experiment [2] of 15.5 µM. In experiment [1], this molecule had an inhibition of over 55%.
